Assay: mn = molality of the nth substance listed, in mol/kg
Conditions: 100 kPa, Liquid; for speed of sound: Frequency=3 MHz, Sing-around technique in a fixed-path interferometer; for mass density: Vibrating tube method

CC(C)C[C@H](N)C(=O)O [L-leucine] + O
Conditions	mass density, 288.15 K [kg/m3]	mass density, 298.15 K [kg/m3]	mass density, 308.15 K [kg/m3]	mass density, 318.15 K [kg/m3]	speed of sound, 288.15 K [m/s]	speed of sound, 298.15 K [m/s]	speed of sound, 308.15 K [m/s]	speed of sound, 318.15 K [m/s]
m1 = 0.00991	999.363	997.29	994.279	990.433	1468	1497	1520.5	1537
m1 = 0.02042	999.615	997.535	994.535	990.663	1469.3	1498.2	1521.5	1538
m1 = 0.04026	1000.09	998.005	994.994	991.098	1471.8	1500.4	1523.5	1539.8
m1 = 0.06014	1000.6	998.476	995.441	991.533	1474.2	1502.6	1525.5	1541.7
m1 = 0.0802	1001.07	998.929	995.893	991.972	1476.7	1504.9	1527.5	1543.5
m1 = 0.1002	1001.57	999.402	996.345	992.41	1479.2	1507.1	1529.5	1545.3
m1 = 0.1246	1002.13	999.979	996.896	992.945	1482.3	1509.8	1532	1547.6
m1 = 0.1502	1002.71	1000.56	997.446	993.506	1485.5	1512.7	1534.6	1550

CC(C)C[C@H](NC(=O)CN)C(=O)O [glycyl-L-leucine] + O
Conditions	mass density, 288.15 K [kg/m3]	mass density, 298.15 K [kg/m3]	mass density, 308.15 K [kg/m3]	mass density, 318.15 K [kg/m3]	speed of sound, 288.15 K [m/s]	speed of sound, 298.15 K [m/s]	speed of sound, 308.15 K [m/s]	speed of sound, 318.15 K [m/s]
m1 = 0.01036	999.623	997.544	994.554	990.713	1468.4	1497.4	1521	1537.6
m1 = 0.02041	1000.14	998.07	995.045	991.171	1470.1	1499	1522.6	1539.1
m1 = 0.04005	1001.13	999.05	995.995	992.11	1473.3	1502	1525.5	1542
m1 = 0.06009	1002.13	999.995	996.94	993.02	1476.6	1505.2	1528.5	1544.9
m1 = 0.08023	1003.08	1000.95	997.866	993.927	1479.9	1508.3	1531.5	1547.9
m1 = 0.09965	1004.02	1001.9	998.802	994.85	1483.1	1511.3	1534.4	1550.7
m1 = 0.1502	1006.4	1004.28	1001.19	997.236	1491.4	1519.2	1542	1558.2
m1 = 0.2014	1008.79	1006.66	1003.57	999.61	1499.8	1527.1	1549.7	1565.7

Source: the NIST ThermoML archive (doi:10.1021/acs.jced.6b00168)
